What was measured:
mouse 11β-HSD1 = target: T1, mouse 11β-HSD1 (Mus musculus, UniProt P50172); assay: Enzyme activity analysis on mouse 11β-HSD1 (HTRF cortisol, liver microsomes); format: biochemical; conditions: second value of cell
T1 construct: 100 ug/ml human/mouse liver microsomes; from tissue; host or cells: mouse liver microsomes
Outline: (§1)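 Cortisol generated by mouse or human liver microsome 11β-HSD1 during 2 h at 37° C., measured by HTRF competition (cryptate anti-cortisol antibody, d2-cortisol, 2 h room temperature) against a cortisol standard curve. IC50 from percent inhibition versus no-compound control.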

human 11β-HSD1 = target: T2, human 11β-HSD1 (Homo sapiens, UniProt P28845); assay: Enzyme activity analysis on human 11β-HSD1 (HTRF cortisol, liver microsomes); format: biochemical; conditions: first value of cell
T2 construct: 100 ug/ml human/mouse liver microsomes; from tissue; host or cells: human liver microsomes
Outline: as §1

T1 sequence (P50172 whole entry): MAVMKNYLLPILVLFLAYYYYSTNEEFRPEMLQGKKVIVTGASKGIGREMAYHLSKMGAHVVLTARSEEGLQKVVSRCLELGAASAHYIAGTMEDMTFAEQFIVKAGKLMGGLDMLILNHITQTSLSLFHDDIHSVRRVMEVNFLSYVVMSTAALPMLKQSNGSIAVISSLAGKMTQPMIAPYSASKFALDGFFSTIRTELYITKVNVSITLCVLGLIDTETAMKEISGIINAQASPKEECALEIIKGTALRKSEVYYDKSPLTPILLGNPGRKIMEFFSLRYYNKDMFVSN
T2 sequence (P28845 whole entry): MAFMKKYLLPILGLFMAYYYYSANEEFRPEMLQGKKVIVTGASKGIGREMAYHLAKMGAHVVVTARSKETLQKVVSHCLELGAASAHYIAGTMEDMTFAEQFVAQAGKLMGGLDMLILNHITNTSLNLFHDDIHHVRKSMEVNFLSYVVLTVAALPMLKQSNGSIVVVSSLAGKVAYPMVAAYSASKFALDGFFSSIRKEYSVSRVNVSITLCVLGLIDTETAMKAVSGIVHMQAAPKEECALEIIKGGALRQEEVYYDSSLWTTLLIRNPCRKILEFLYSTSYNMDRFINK

IC50 (mouse 11β-HSD1)	IC50 (human 11β-HSD1)	SMILES
0.505 µM	1.3 µM	NC(=O)C12CC3CC(C1)C(NC(=O)C1(NS(=O)(=O)c4ccc([N+](=O)[O-])c(C(F)(F)F)c4)CCC1)C(C3)C2 (stereo not shown) [compound 147, N-4-(1-(3-trifluoromethyl-4-nitrophenylsulfonamido)cyclobutanecarboxyamido)adamantane-1-carboxyamide]
0.056 µM	0.163 µM	NC(=O)C12CC3CC(C1)C(NC(=O)C1(NS(=O)(=O)c4ccccc4)CCC1)C(C3)C2 (stereo not shown) [compound 148, N-4-(1-(phenylsulfonamido)cyclobutanecarboxyamido)adamantane-1-carboxyamide]
0.187 µM	0.639 µM	Cc1ccc(S(=O)(=O)NC2(C(=O)NC3C4CC5CC3CC(C(N)=O)(C5)C4)CCC2)cc1[N+](=O)[O-] (stereo not shown) [compound 150, N-4-(1-(3-nitro-4-methylphenylsulfonamido)cyclobutanecarboxyamido)adamantane-1-carboxyamide]
0.062 µM	0.182 µM	Cc1ccc(S(=O)(=O)NC2(C(=O)NC3C4CC5CC3CC(C(N)=O)(C5)C4)CCC2)cc1F (stereo not shown) [compound 151, N-4-(1-(3-fluoro-4-methylphenylsulfonamido)cyclobutanecarboxyamido)adamantane-1-carboxyamide]
0.565 µM	1.63 µM	COc1ccc(S(=O)(=O)NC2(C(=O)NC3C4CC5CC3CC(C(N)=O)(C5)C4)CCC2)cc1F (stereo not shown) [compound 154, N-4-(1-(3-fluoro-4-methoxyphenylsulfonamido)cyclobutanecarboxyamido)adamantane-1-carboxyamide]
0.41 µM	0.061 µM	NC(=O)C12CC3CC(C1)C(NC(=O)C1(NS(=O)(=O)c4ccccc4C(F)(F)F)CCC1)C(C3)C2 (stereo not shown) [compound 157, N-4-(1-(2-trifluoromethylphenylsulfonamido)cyclobutanecarboxyamido)adamantane-1-carboxyamide]
0.113 µM	0.018 µM	NC(=O)C12CC3CC(C1)C(NC(=O)C1(NS(=O)(=O)c4ccccc4OC(F)(F)F)CCC1)C(C3)C2 (stereo not shown) [compound 160, N-4-(1-(2-trifluoromethoxyphenylsulfonamido)cyclobutanecarboxyamido)adamantane-1-carboxyamide]
0.453 µM	0.04 µM	NC(=O)C12CC3CC(C1)C(NC(=O)C1(NS(=O)(=O)c4ccc(Br)cc4Cl)CCC1)C(C3)C2 (stereo not shown) [compound 162, N-4-(1-(2-chloro-4-bromophenylsulfonamido)cyclobutanecarboxyamido)adamantane-1-carboxyamide]
0.443 µM	0.373 µM	NC(=O)C12CC3CC(C1)C(NC(=O)C1(NS(=O)(=O)c4cc(F)ccc4F)CCC1)C(C3)C2 (stereo not shown) [compound 163, N-4-(1-(2,5-difluorophenylsulfonamido)cyclobutanecarboxyamido)adamantane-1-carboxyamide]
0.298 µM	0.058 µM	Cc1ccc(F)c(S(=O)(=O)NC2(C(=O)NC3C4CC5CC3CC(C(N)=O)(C5)C4)CCC2)c1 (stereo not shown) [compound 164, N-4-(1-(2-fluoro-5-methylphenylsulfonamido)cyclobutanecarboxyamido)adamantane-1-carboxyamide]
0.29 µM	0.101 µM	Cc1ccc(F)cc1S(=O)(=O)NC1(C(=O)NC2C3CC4CC2CC(C(N)=O)(C4)C3)CCC1 (stereo not shown) [compound 165, N-4-(1-(2-methyl-5-fluorophenylsulfonamido)cyclobutanecarboxyamido)adamantane-1-carboxyamide]
0.559 µM	0.724 µM	NC(=O)C12CC3CC(C1)C(NC(=O)C1(NS(=O)(=O)c4ccc(OC(F)F)cc4)CCC1)C(C3)C2 (stereo not shown) [compound 166, N-4-(1-(4-(difluoromethoxy)phenylsulfonamido)cyclobutanecarboxyamido)adamantane-1-carboxyamide]
0.053 µM	0.016 µM	NC(=O)C12CC3CC(C1)C(NC(=O)C1(NS(=O)(=O)c4ccccc4C(F)(F)F)CCCC1)C(C3)C2 (stereo not shown) [compound 172, N-4-(1-(2-trifluoromethylphenylsulfonamido)cyclopentanecarboxyamido)adamantane-1-carboxyamide]
0.038 µM	0.014 µM	NC(=O)C12CC3CC(C1)C(NC(=O)C1(NS(=O)(=O)c4ccccc4[N+](=O)[O-])CCCC1)C(C3)C2 (stereo not shown) [compound 173, N-4-(1-(2-nitrophenylsulfonamido)cyclopentanecarboxyamido)adamantane-1-carboxyamide]

Continued, molecule first:

SMILES	IC50 (mouse 11β-HSD1)	IC50 (human 11β-HSD1)
Cc1c(Cl)cccc1S(=O)(=O)NC1(C(=O)NC2C3CC4CC2CC(C(N)=O)(C4)C3)CCC1 (stereo not shown) [compound 149, N-4-(1-(2-methyl-3-chlorophenylsulfonamido)cyclobutanecarboxyamido)adamantane-1-carboxyamide]	0.04 µM	0.015 µM
NC(=O)C12CC3CC(C1)C(NC(=O)C1(NS(=O)(=O)c4ccccc4Cl)CCC1)C(C3)C2 (stereo not shown) [compound 152, N-4-(1-(2-chlorophenylsulfonamido)cyclobutanecarboxyamido)adamantane-1-carboxyamide]	0.099 µM	0.021 µM
NC(=O)C12CC3CC(C1)C(NC(=O)C1(NS(=O)(=O)c4ccc(Cl)cc4Cl)CCC1)C(C3)C2 (stereo not shown) [compound 153, N-4-(1-(2,4-dichlorophenylsulfonamido)cyclobutanecarboxyamido)adamantane-1-carboxyamide]	0.459 µM	0.058 µM
NC(=O)C12CC3CC(C1)C(NC(=O)C1(NS(=O)(=O)c4ccccc4Br)CCC1)C(C3)C2 (stereo not shown) [compound 155, N-4-(1-(2-bromophenylsulfonamido)cyclobutanecarboxyamido)adamantane-1-carboxyamide]	0.145 µM	0.024 µM
Cc1ccccc1S(=O)(=O)NC1(C(=O)NC2C3CC4CC2CC(C(N)=O)(C4)C3)CCC1 (stereo not shown) [compound 156, N-4-(1-(2-methylphenylsulfonamido)cyclobutanecarboxyamido)adamantane-1-carboxyamide]	0.138 µM	0.046 µM
NC(=O)C12CC3CC(C1)C(NC(=O)C1(NS(=O)(=O)c4cccc(Cl)c4Cl)CCC1)C(C3)C2 (stereo not shown) [compound 158, N-4-(1-(2,3-dichlorophenylsulfonamido)cyclobutanecarboxyamido)adamantane-1-carboxyamide]	0.058 µM	0.018 µM
NC(=O)C12CC3CC(C1)C(NC(=O)C1(NS(=O)(=O)c4cccc(Cl)c4F)CCC1)C(C3)C2 (stereo not shown) [compound 159, N-4-(1-(2-fluoro-3-chlorophenylsulfonamido)cyclobutanecarboxyamido)adamantane-1-carboxyamide]	0.126 µM	0.096 µM
NC(=O)C12CC3CC(C1)C(NC(=O)C1(NS(=O)(=O)c4cc(Cl)c(Cl)cc4Cl)CCC1)C(C3)C2 (stereo not shown) [compound 161, N-4-(1-(2,4,5-trichlorophenylsulfonamido)cyclobutanecarboxyamido)adamantane-1-carboxyamide]	0.428 µM	0.052 µM
Cc1c(Cl)cccc1S(=O)(=O)NC1(C(=O)NC2C3CC4CC2CC(C(N)=O)(C4)C3)CCCC1 (stereo not shown) [compound 167, N-4-(1-(3-chloro-2-methylphenylsulfonamido)cyclopentanecarboxyamido)adamantane-1-carboxyamide]	0.016 µM	0.008 µM
NC(=O)C12CC3CC(C1)C(NC(=O)C1(NS(=O)(=O)c4cccc5cccnc45)CCCC1)C(C3)C2 (stereo not shown) [compound 168, N-4-(1-(quinoline-8-sulfonamido)cyclopentanecarboxyamido)adamantane-1-carboxyamide]	0.007 µM	0.022 µM
Cc1ccccc1S(=O)(=O)NC1(C(=O)NC2C3CC4CC2CC(C(N)=O)(C4)C3)CCCC1 (stereo not shown) [compound 169, N-4-(1-(2-methylphenylsulfonamido)cyclopentanecarboxyamido)adamantane-1-carboxyamide]	0.049 µM	0.03 µM
NC(=O)C12CC3CC(C1)C(NC(=O)C1(NS(=O)(=O)c4ccccc4Cl)CCCC1)C(C3)C2 (stereo not shown) [compound 170, N-4-(1-(2-chlorophenylsulfonamido)cyclopentanecarboxyamido)adamantane-1-carboxyamide]	0.012 µM	0.011 µM
NC(=O)C12CC3CC(C1)C(NC(=O)C1(NS(=O)(=O)c4ccccc4)CCCC1)C(C3)C2 (stereo not shown) [compound 171, N-4-(1-(phenylsulfonamido)cyclopentanecarboxyamido)adamantane-1-carboxyamide]	0.12 µM	0.038 µM
NC(=O)C12CC3CC(C1)C(NC(=O)C1(NS(=O)(=O)c4ccccc4Br)CCCC1)C(C3)C2 (stereo not shown) [compound 174, N-4-(1-(2-bromophenylsulfonamido)cyclopentanecarboxyamido)adamantane-1-carboxyamide]	0.015 µM	0.017 µM
NC(=O)C12CC3CC(C1)C(NC(=O)C1(NS(=O)(=O)c4c(Cl)cccc4Cl)CCCC1)C(C3)C2 (stereo not shown) [compound 175, N-4-(1-(2,6-dichlorophenylsulfonamido)cyclopentanecarboxyamido)adamantane-1-carboxyamide]	0.003 µM	0.006 µM
NC(=O)C12CC3CC(C1)C(NC(=O)C1(NS(=O)(=O)c4cccc(Cl)c4Cl)CCCC1)C(C3)C2 (stereo not shown) [compound 176, N-4-(1-(2,3-dichlorophenylsulfonamido)cyclopentanecarboxyamido)adamantane-1-carboxyamide]	0.007 µM	0.009 µM
NC(=O)C12CC3CC(C1)C(NC(=O)C1(NS(=O)(=O)c4cccc(Cl)c4F)CCCC1)C(C3)C2 (stereo not shown) [compound 177, N-4-(1-(2-fluoro-3-chlorophenylsulfonamido)cyclopentanecarboxyamido)adamantane-1-carboxyamide]	0.006 µM	0.009 µM
NC(=O)C12CC3CC(C1)C(NC(=O)C1(NS(=O)(=O)c4ccccc4Br)CCCCC1)C(C3)C2 (stereo not shown) [compound 178, N-4-(1-(2-bromophenylsulfonamido)cyclohexanecarboxyamido)adamantane-1-carboxyamide]	0.048 µM	0.009 µM
